Square brackets hold non-standard residues; d marks the D form. Peptide text beside a SMILES is read from it. * marks the point of attachment. X1 = COc1ccc(C[C@@H](CN[C@@H](CCCNC(=N)N)C(=O)O)N*)cc1; Hyp = O=C(O)[C@@H]1C[C@@H](O)CN1; 2Thi = N[C@@H](Cc1cccs1)C(=O)O
Experiments:
human cloned B2 receptor = biological target: T1, human cloned B2 receptor (Homo sapiens, UniProt P30411); assay: [^3H]-BK binding to human cloned B2 receptor (CHO-B2 membranes); settings: 0.2 nM [^3H]-BK, CHO-B2 homogenates 2.5 µg protein, 60 min, 23 °C, 50 mM Tris/HCl pH 7.4; mean±SEM, up to 19 experiments; read-out: Ligand binding inhibition constant at human cloned B2 receptors (Ki)
T1 construct: purchased Euroscreen, Gosselies, Belgium; host or cells: CHO cells (recombinant, CHO-B2), used as cell homogenates/membranes
T1 sequence (P30411 1-391): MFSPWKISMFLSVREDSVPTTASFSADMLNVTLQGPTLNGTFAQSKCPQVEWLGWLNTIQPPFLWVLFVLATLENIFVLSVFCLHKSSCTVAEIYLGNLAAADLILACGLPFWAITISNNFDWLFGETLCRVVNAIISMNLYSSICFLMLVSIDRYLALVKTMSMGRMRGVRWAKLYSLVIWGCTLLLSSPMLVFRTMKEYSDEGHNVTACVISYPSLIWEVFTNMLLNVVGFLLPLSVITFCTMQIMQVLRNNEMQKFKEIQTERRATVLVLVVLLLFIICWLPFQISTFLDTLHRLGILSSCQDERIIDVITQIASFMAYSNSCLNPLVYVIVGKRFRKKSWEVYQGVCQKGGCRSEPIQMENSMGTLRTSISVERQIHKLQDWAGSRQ
Description: However, in view of the difficulty of obtaining sufficient h-CM cells for these initial studies, we decided to use cell membranes of Chinese hamster ovary cells containing the human cloned B2 receptor (CHO-B2; Euroscreen, Gosselies, Belgium). […] Following this incubation, the samples were filtered rapidly under vacuum through glass fiber filters (PerkinElmer) presoaked with 0.3% polyethyleneimine and rinsed several times with an ice-cold 50 mM Tris-HCl buffer using a 96-sample cell harvester (TomTec; Gaithersburg, MD). The filters were air-dried and the radioactivity counted in a beta-scintillation counter (TopCount, PerkinElmer). Data were analyzed using a sigmoidal-fit, iterative algorithm of a computer program designed to automatically fit the new data (Activity base; IDBS, Surrey, UK).

[1] = tested on: CHO-B2 cells (human cloned B2 receptor); assay type: cell-based, Chinese hamster ovary cells; settings: compound on its own
Description: (§1) Measurement of prostaglandins in human ciliary muscle and Chinese hamster ovary cells expressing B2 receptors
(§2) This involved stimulating h-CM cells and CHO-B2 cells with various concentrations of test peptides and measuring the release of various PGs in the extracellular medium. The concentration-dependent effects of these peptides on total PGs, and specifically PGE2, PGF2α, and PGD2 release, were studied. Cells were grown as a monolayer in a 24-well plate (precoated with fibronectin) to confluence and subsequently serum-starved overnight before the experiment. On the day of the experiment, just before the drug was added, the wells were aspirated completely, and 990 µl basal medium and 10 µl 100× series of concentrations of the different peptide agonists were added to achieve the desired final concentrations of each compound (e.g., 0.1 nM to 10 µM). […] At the end of the incubation period, the cellular supernatants were collected and stored at −80 °C or used immediately to determine the PG content. Cell supernatants were tested for total PG levels and sub-species of PGs (PGE2, PGF2α, and PGD2) using specific competitive enzyme immunoassays (Cayman Chemical Co., Ann Arbor, MI) as directed in the manufacturer’s recommended protocols using the supplied standards and reagents. The limits of detection for various PGs were as follows: total PGs=29 pg/ml; PGE2=15 pg/ml; PGF2α=9 pg/ml; PGD2=200 pg/ml.

primary h-CM cells = assay type: cell-based, human; settings: for Effect on background level of total PGs, h-CM cells: alone, up to 100 nM, single experiment; for Effect on total PGs induced by 1 µM BK, h-CM cells: pretreatment, challenge with 1 µM BK
Description: as §1, §2

COX-1 and COX-2 = settings: ref [43]; cited from earlier work

| Compound | Ki (human cloned B2 receptor) [nM] | PG production/release by compound alone, CHO-B2 cells [1] | Effect on background level of total PGs, h-CM cells (primary h-CM cells) | Effect on total PGs induced by 1 µM BK, h-CM cells (primary h-CM cells; three experiments) | COX-1/COX-2 inhibition selectivity (COX-1 and COX-2) | Effect on BK concentration-response of PG release, h-CM cells (primary h-CM cells; 1 µM final, preincubated 5 min, three experiments) |
| --- | --- | --- | --- | --- | --- | --- |
| NCCCC[C@H](N)C(=O)N[C@@H](CCCN=C(N)N)C(=O)N1CCC[C@H]1C(=O)N1CCC[C@H]1C(=O)NCC(=O)N[C@@H](Cc1ccccc1)C(=O)N[C@@H](CO)C(=O)N1CCC[C@H]1C(=O)N[C@@H](Cc1ccccc1)C(=O)N[C@@H](CCCN=C(N)N)C(=O)O [Lys-BK] | 1.8 ± 0.7 |  |  |  |  |  |
| CC(C(=O)O)c1ccc(-c2ccccc2)c(F)c1 (stereo not drawn) [flurbiprofen] |  | failed to influence PG production | inhibited the background level of total PGs | concentration-dependent reduction in total PGs synthesized and secreted, with flurbiprofen much more potent than bromfenac | equally blocks COX-1 and COX-2 |  |
| COc1ccc(C[C@@H](CN[C@@H](CCCNC(=N)N)C(=O)O)NC(=O)[C@@H]2CCCN2C(=O)[C@H](CO)NC(=O)[C@H](Cc2cccs2)NC(=O)CNC(=O)[C@@H]2C[C@@H](O)CN2C(=O)[C@@H]2CCCN2C(=O)[C@@H](N)CCCNC(=N)N)cc1 [RMP-7] (H-RP[Hyp]G[2Thi]SP-X1) | 11.3 ± 1.1 |  |  |  |  |  |
| CSCC[C@H](N)C(=O)N[C@@H](CCCCN)C(=O)N[C@@H](CCCNC(=N)N)C(=O)N1CCC[C@H]1C(=O)N1CCC[C@H]1C(=O)NCC(=O)N[C@@H](Cc1ccccc1)C(=O)N[C@@H](CO)C(=O)N1CCC[C@H]1C(=O)N[C@@H](Cc1ccccc1)C(=O)N[C@@H](CCCNC(=N)N)C(=O)O [Met-Lys-BK] | 73 ± 24.7 |  |  |  |  |  |
| Nc1c(CC(=O)O)cccc1C(=O)c1ccc(Br)cc1 [bromfenac] |  | failed to influence PG production | inhibited the background level of total PGs | concentration-dependent reduction in total PGs synthesized and secreted | COX-2-selective | completely abolished PG synthesis and release |

Source: article PMC3693772, “Protein expression, biochemical pharmacology of signal transduction, and relation to intraocular pressure modulation by bradykinin B2 receptors in ciliary muscle” (Molecular Vision, 2013)
